# Patent US20250144562A1, “ELECTROCHEMICAL CO2 CAPTURE WITH AIR STABLE REDOX SPECIES” (President and Fellows of Harvard College, priority 2022, published 2025)
# Legend:
# [1] = Stability in air of reduced BTMAPAQ isomers (with and without captured CO2) tracked by 1H NMR
# [2] = Cyclic voltammetry of the water-soluble redox molecules; settings: for redox peak separation: 0.1 M in 1 M TBABr
# From the text: Cyclic voltammetry was used to examine the electrochemical behaviors of the water-soluble redox molecules in the presence/absence of CO2.
# [3] = Stability in air of 2,7-BTMAPFL-OH stirred in air for 12 hours, 1H NMR; format: physicochemical; settings: vigorously stirred in air 12 hours
# Procedure: We vigorously stirred the solution in air for 12 hours, then checked its ^1H NMR spectra before and after being stirred in air.
# The 2,7-BTMAPFL molecule undergoes PCET process and forms 2,7-BTMAPFL-OH after the electrochemical reduction; meanwhile, the electrolyte pH swings from near neutral (˜7) to ˜14. Therefore, we also investigated the air stability of 2,7-BTMAPFL-OH at pH 14 by vigorously stirring the pH 14 solution in air for 12 hours.
# [4] = pH >6; cited from earlier work
# [5] = Reduction potentials stated for choice of chemical reductant; settings: pH=7
# [6] = with captured CO2, D2O, 1 M KCl
# [7] = with captured CO2, D2O, 1 M KCl, air exposure
# [8] = with captured CO2, D2O, 1 M KCl, air exposure, day-4
# [9] = with captured CO2, D2O, 1 M KCl, air exposure, day-6
# [10] = without captured CO2, D2O, 1 M KCl
# [11] = without captured CO2, D2O, 1 M KCl, air exposure
# [12] = without captured CO2, D2O, 1 M KCl, air exposure, day-3
compound,measurement,setting,value
"C[N+](C)(C)CCCOc1ccc(OCCC[N+](C)(C)C)c2c1C(=O)c1ccccc1C2=O [1,4-BTMAPAQ]",oxidation by air of the reduced species,[1]; [6],relatively slow
same,day on which peaks of oxidized state start to appear,[1]; [7],2 days
same,reduced form with captured CO2 converted to the oxidized form,"[1]; with captured CO2, D2O, 1 M KCl, air exposure, day-3",51.5%
same,reduced form with captured CO2 converted to the oxidized form,[1]; [8],73.0%
same,reduced form with captured CO2 converted to the oxidized form,[1]; [9],98.0%
same,oxidation by air of the reduced species,[1]; [10],very slow
same,day on which peaks of oxidized state start to appear,[1]; [11],3 days
same,reduced form converted to the oxidized form,[1]; [12],11.3%
same,reduced form converted to the oxidized form,"[1]; without captured CO2, D2O, 1 M KCl, air exposure, day-4",27.6%
same,reduced form converted to the oxidized form,"[1]; without captured CO2, D2O, 1 M KCl, air exposure, day-6",50%
"C[N+](C)(C)CCCOc1cccc2c1C(=O)c1cccc(OCCC[N+](C)(C)C)c1C2=O [1,5-BTMAPAQ]",oxidation by air of the reduced species,[1]; [6],very slow
same,day on which peaks of oxidized state start to appear,[1]; [7],4 days
same,reduced form with captured CO2 converted to the oxidized form,[1]; [8],15.0%
same,reduced form with captured CO2 converted to the oxidized form,[1]; [9],22.3%
same,oxidation by air of the reduced species,[1]; [10],very slow
same,air stability (1H NMR spectra unchanged),[1]; [11],good air stability over the first day
same,day on which peaks of oxidized state start to appear,[1]; [11],2 days
same,reduced form converted to the oxidized form,[1]; [12],37.0%
same,reduced form converted to the oxidized form,"[1]; without captured CO2, D2O, 1 M KCl, air exposure, day-5",47.4%
same,reduced form converted to the oxidized form,"[1]; without captured CO2, D2O, 1 M KCl, loosely capped, air exposure, day-2",23.6%
"C[N+](C)(C)CCCOc1cccc2c1C(=O)c1c(OCCC[N+](C)(C)C)cccc1C2=O [1,8-BTMAPAQ]",redox peak separation,"[2]; absence of CO2, scan rate 100 mV/s",100 mV
same,redox peak separation,"[2]; in the presence of CO2, scan rate 100 mV/s",200 mV
same,time the reduced species with captured CO2 can withstand the presence of air,"[1]; with captured CO2, 1 M TBABr",5 days
same,oxidation by air of the reduced species,"[1]; with captured CO2, D2O, 1 M TBABr",extremely slow
same,day on which peaks of oxidized state appear,"[1]; with captured CO2, D2O, 1 M TBABr, air exposure day 1 to day 9",9 days
"C[N+](C)(C)CCCOc1ccc2c(c1)C(O)c1cc(OCCC[N+](C)(C)C)ccc1-2 [2,7-BTMAPFL-OH]",air stability (1H NMR spectra unchanged),"[3]; D2O, 1 M KCl, pH 7",excellent air stability over 12 hours
same,air stability (1H NMR spectra almost unchanged),[3]; pH 14,excellent air stability over 12 hours
"C[N+](C)(C)CCCOc1ccc2c(c1)C(=O)c1cc(OCCC[N+](C)(C)C)ccc1-2 [2,7-BTMAPFL]",cyclic voltammetry peaks observed,"[2]; 0.1 M in 1 M KCl at pH 7, scan rate 100 mV/s",a reduction peak but no oxidation peak
same,potential of the pair of redox peaks,"[2]; 0.1 M in 1 M KOH at pH 14, scan rate 100 mV/s",−0.67 V vs. Ag/AgCl
same,electrochemical reversibility,[2]; pH 7,poor reversibility
same,electrochemical reversibility,[2]; pH 14,good reversibility
"O=NO [NO2, nitrite]",air-stability,[4],superior air-stability
"O=S([O-])S(=O)[O-].[Na+].[Na+] [Na2S2O4, sodium dithionite, reference compound]",reduction potential,[5],−0.66 V vs. SHE
bis-(trimethylammonio)propyl anthraquinone [BTMAPAQ],reduction potential,[5],−0.41 V vs. SHE
